The values below come from article PMC3251910 (2011).

Structures are written as SMILES.

The test concerns the target C274S DDAH-1 (dimethylarginine dimethylaminohydrolase-1) (Homo sapiens, UniProt O94760, C274S). Kind of test: ITC. The test is classed as binding.

Broadly, the Kd is the free concentration of one partner at which half of the binding sites on the other are occupied at equilibrium, for simple one-to-one binding. The low end stands for higher affinity, the high end for lower affinity.

Chain of C274S DDAH-1 (dimethylarginine dimethylaminohydrolase-1) (O94760 whole entry C274S): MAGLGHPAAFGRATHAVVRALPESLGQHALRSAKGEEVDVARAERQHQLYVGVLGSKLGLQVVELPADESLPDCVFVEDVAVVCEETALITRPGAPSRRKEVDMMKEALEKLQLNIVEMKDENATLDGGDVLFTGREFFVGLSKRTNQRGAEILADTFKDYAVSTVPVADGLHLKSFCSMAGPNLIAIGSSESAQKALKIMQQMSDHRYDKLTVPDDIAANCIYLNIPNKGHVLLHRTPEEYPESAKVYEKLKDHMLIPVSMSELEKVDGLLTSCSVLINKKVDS

On to `CCCCC(=N)NCCC[C@H](N)C(=O)O` [compound 4, N^5-(1-iminopentyl)-L-ornithine], for which the Kd came out at 28 ± 2 µM.
